This note sets out measurements from a melting point compilation (Tetko et al.; mined from patent text by program, amines drawn as free bases though some values may be those of a salt).

Where only a bound is given, the exact number is not on record here.

One may read the melting point as the temperature, or range, at which the solid turns liquid. The compound `CC(C)[C@H](NC(=O)OCc1ccccc1)C(=O)NCc1ccccc1` showed a melting point of 174 °C.

Regarding `CN1CCN(c2ccc3cnn(C)c3n2)CC1`, the melting point was in the range of 106 to 107 °C. Under `COc1c(C)c2c(c(O)c1CC1=C(C)C(CC(=O)O)CC1)C(=O)OC2` (configuration not stated) stands 153 to 159 °C; under `O=c1cc(CO)n2c(n1)COc1ccccc1-2`, 235 to 237 °C; under `c1ccc(-n2nnc3ccc(Cn4ccnc4)cc32)cc1`, 110 °C. With `NC(=S)NN=C(CNC(=O)c1ccccc1)c1ccccc1`, the melting point is 171 to 172 °C. With `COc1ccc(C(=O)N(C(=O)c2ccc(OC)cc2)c2nc3ccc(N4CCOCC4)cc3c(NCc3ccccc3)c2C#N)cc1` the figure was 157 °C; with `CCCCOc1c(CO)n(CC(C)(C)C)c(=O)c2cc(F)ccc12`, 149 to 150 °C. With `CCOC(=O)c1nnc(N2N=C(c3ccc([N+](=O)[O-])c(C)c3)c3cc4c(cc3C[C@H]2C)OCO4)s1` the figure was 115 to 118 °C. Under `Cc1ccc(OCCOc2ccc(C)cc2)cc1` stands 134 °C; under `O=c1oc(-c2ccc(F)cc2)cc2ccccc12`, 134 to 135 °C; under `CC1(C)C(=O)N(c2ccnc(NC(=O)NCc3ccccn3)c2)c2ccccc21`, 191 to 192 °C.

`COc1ccc(C(=O)O)c(Oc2ccc(C(F)(F)F)cc2NS(=O)(=O)c2cc(C(F)(F)F)cc(C(F)(F)F)c2)c1` came in with a melting point of 182 °C. The compound `CS(=O)(=O)c1ccc(-n2nc(C(F)(F)F)cc2-c2ccc(-c3ccsc3)cc2)cc1` returned a melting point of 154 to 155 °C. Under `CCOC(=O)c1c(-c2ccc(F)cc2)c(-c2ccc(F)cc2)c(C=O)n1C(C)C` stands 92 to 94 °C; under `OC1(C(Br)Br)O[C@H](COCc2ccccc2)[C@@H](OCc2ccccc2)[C@H](OCc2ccccc2)[C@H]1OCc1ccccc1` (some centres not stated), 77 to 78 °C. For `S=c1nc2ccc(Cl)cn2c(=S)n1-c1ccc(Cl)cn1`, the melting point was 131 to 132 °C. With `COC(=O)CCC/C=C\CN1C(=O)c2ccccc2C1=O` the figure was 47 to 49 °C; with `Nc1nc(Nc2ccc(S(N)(=O)=O)cc2)sc1C(=O)c1c(F)cccc1F`, 258 to 260 °C; with `O=[N+]([O-])c1ccc(-n2ccnc2SCc2ccccc2N2CCOCC2)nc1`, 199 to 202 °C. With `NC(=O)CC12CCCCC1CCc1ccccc12` (configuration not stated), the melting point was 177 °C. With `O[C@@H]1CNCC[C@H]1Sc1ccccc1` (relative stereo) the figure was 135 to 136 °C. In turn, `COC(=O)CC[C@H]1CC[C@H](NC(=O)N(NC=O)c2ccc(C#N)cc2)CC1` registered a melting point of 140 to 142 °C. Consider `CCCCCCCCCCCCCCc1cccc(O)c1`, for which the melting point lay within 38 to 40 °C. With `CC#CCOc1ccc(S(=O)(=O)N(C)C(C(=O)NO)c2ccc(OCCCNS(C)(=O)=O)cc2)cc1` (configuration not stated) the figure was 65 to 70 °C; with `COc1cc2c(cc1O)CCN(S(=O)(=O)c1ccccc1OC)C2`, 140 to 142 °C.

Regarding `C=C1CC(C(O)=Nc2cc(Cl)cc(Cl)c2)C1C(=O)O` (configuration not stated), the melting point was 119 °C.

For `O=C1c2ccccc2C(=O)N1CCCSc1ccccc1`, the melting point lay in the range of 83 to 85 °C.

The compound `COc1cc(COc2nn(C)cc2/C=C\c2cscn2)ccc1OCc1nc(-c2ccco2)oc1C` came in with a melting point of 97 to 98 °C. In turn, `CCCCc1ncc(C(=O)O)s1` displayed a melting point of 97 °C.

Turning to `COc1ccc(/C(=C/C=C/C(=O)O)c2cccs2)cc1`, the melting point is 214 to 216 °C. `O=C(O)c1cc(-n2c(-c3ccccc3)cc3c2CCc2ccccc2-3)ccc1S` had a melting point of 260 to 262 °C. Under `CCOc1ccc(NC(=O)c2cnc3c(N)cccc3c2)cc1` stands 187 to 189 °C.

For `O=C1c2cc(OCc3ccccc3)ccc2OCCC1Oc1ccccc1` (configuration not stated), the melting point lay within 112 to 114 °C. Under `O=C1c2cccc(F)c2C(=O)N1CCN1CCC(c2noc3cc(F)ccc23)CC1` stands 142 to 143 °C; under `O=C1Nc2cccnc2C(=O)N2CCCC12` (configuration not stated), 249 to 250 °C; under `CCCCC(O)c1cccc(NC(=O)OCc2ccccc2)c1` (configuration not stated), 83 to 86 °C.

Consider `COc1ccc2c(-c3ccc(C#Cc4ccccc4)cc3)cc(=O)oc2c1`, for which the melting point lay in the range of 178 to 180 °C. Under `O=C(CCc1oc(-n2cnc3ccccc32)nc1-c1ccc(Cl)cc1)N1CCSC1` stands 125 to 126 °C; under `CCN(CC)S(=O)(=O)c1ccc(N2N=C(C)C(=CNc3ccccc3OC)C2=O)cc1`, 191 °C; under `CC(C)(CO)C[C@H]1COC(C)(C)N1C(=O)OC(C)(C)C`, 45 to 46 °C. With `O=C1CCC(N2C(=O)c3cccc(CNC(=O)c4cnccn4)c3C2=O)C(=O)N1` (configuration not stated) the figure was > 260 °C; with `COC(=O)c1ccc(-c2nnc(-c3ccccc3)o2)cc1`, 172 to 173 °C. As to `COC(=O)C(=NO)c1nc2cc(Cl)ccc2oc1=O`, the melting point lay within 176 to 177 °C. Under `NC1(CF)CCCNC1=O` (configuration not stated) stands 132 °C; under `CC(C)c1ccc(C(=O)c2ccc([N+](=O)[O-])cc2)cc1`, 95 °C; under `COC(=O)c1cccc(-c2nc(C(=O)c3ccc(N)c(C(=O)OC)c3)n3ccccc23)c1`, 203 °C.

Turning to `O=S(Cc1ccccc1)c1ccccc1` (configuration not stated), the melting point lay within 123 to 126 °C.

`CCS(=O)(=O)c1cc(OC)c(OC)c(C(=O)O)c1` had a melting point of 138 to 139 °C. Consider `Cc1c(C(=O)NCc2ccccc2)nc2n1CCc1ccccc1C2OC1CCN(C)CC1` (configuration not stated), for which the melting point came to 161 °C.

For `CCOc1c(NC(C)(C)CC)c(=O)c1=O`, the melting point was in the range of 78 to 80 °C. Under `CC1=NC(c2ccc(F)cc2F)c2ccccc2CN1C` (single isomer, unassigned; (+)) stands 137 to 138 °C; under `O=C(CO[C@H]1Cc2c(cccc2OCc2ccccc2)C[C@H]1OCC(=O)N1CCOCC1)N1CCOCC1` (relative stereo), 106 to 110 °C; under `CC(C)(C)c1cc(C2CC(=O)N(CCCCCCN3C(=O)CC(c4cc(C(C)(C)C)c(O)c(C(C)(C)C)c4)C3=O)C2=O)cc(C(C)(C)C)c1O` (configuration not stated), 190 to 193 °C. As for `CCN(CC)CCn1nc2c3c(cccc31)C(=O)c1c(NCCNCCO)cccc1-2`, the melting point lay in the range of 129 to 132 °C. `CCOC(=O)/C=C/c1cn(-c2ccc(C(F)(F)F)cn2)nc1C1CCCCC1` displayed a melting point of 132 to 133 °C.

For the compound `COc1ccc(C(N)CN)cc1` (configuration not stated), the melting point came to 64 °C.

`Cc1ccc(SN(C)C(=O)Oc2cccc3c2OC(C)(C)C3)cc1` gave a melting point of 62 °C.

`CC(=O)Nc1nnc2c3c(c(N4CCOCC4)nn12)CCCC3` showed a melting point of 147 to 149 °C. Regarding `CCc1cccc(C(C)C)c1N1C(=O)CN(CC)C1=S`, the melting point fell in the range of 77 to 79 °C. As to `O=C(O)c1cncc(OCc2ccccc2)n1`, the melting point lay within 160 to 162 °C. On to `O=C1Nc2ccccc2C12CCCCC2`, for which the melting point was 164 to 165 °C. With `Oc1ccc2nc(SCCC(F)C(F)(F)Br)oc2c1` (configuration not stated), the melting point was in the range of 64.6 to 67.6 °C.

Turning to `c1ccc(P(Cc2ccccc2-c2ccccc2CP(c2ccccc2)c2ccccc2)c2ccccc2)cc1`, the melting point lay within 84 to 87 °C. Under `CSc1nn2c(O)cc(CN3CCN(C)CC3)nc2c1S(=O)(=O)c1ccccc1` stands > 220 °C. With `CCCS(=O)(=O)NC(=O)CCc1cc(OC(C)C)nn1Cc1ccc(Cl)cc1Cl` the figure was 124 to 126 °C; with `COc1ccc2c(c1)Sc1ccc(SC)cc1C(=O)C2`, 127 °C; with `CN1c2ccccc2CC1COc1ccc(CC2SC(=O)N(C(c3ccccc3)(c3ccccc3)c3ccccc3)C2=O)cc1` (configuration not stated), 62.5 to 65.5 °C.

With `Nc1ccc(OCc2ccccc2)cc1N`, the melting point was found to be 184 °C.

Compound `Cc1cc(NC(=O)C2=C(O)c3ccc4ccccc4c3S(=O)(=O)N2C)sn1` displayed a melting point of 268 °C. With `CCN(CC)C(=O)n1cc(Cc2ccc(C(=O)NS(=O)(=O)c3ccccc3C)cc2OC)c2cc(C(=O)NCC(C)CC(F)(F)F)ccc21` (configuration not stated) the figure was 153 to 154 °C. With `CN=C(ON1C(=O)CCC1=O)c1ccccc1` the figure was 119 to 120 °C; with `COCCN(C)c1nccc(Oc2ccc(NC(=O)c3cc(F)cc(N4CCCCC4)c3)c3ccccc23)n1`, 81 to 82 °C. With `COCc1ccc(Cl)cc1C(=O)OC` the figure was 44 to 45 °C. The compound `S=c1nc2ccc(Br)cn2c(=S)n1-c1ccc(Br)cn1` showed a melting point of 77 °C.

Take `O=C(CCCc1cccnc1)N1CCC(CC(c2ccc(F)cc2)c2ccc(F)cc2)CC1`: the melting point lay within 108 to 110 °C. Regarding `Cc1cc2nc(C)c(CCCl)c(=O)n2o1`, the melting point stood at 165 °C. For the compound `Cc1cc(C(c2ccc(C(c3ccc(O)c(C)c3)c3ccc(O)c(C)c3)cc2)c2ccc(O)c(C)c2)ccc1O`, the melting point was 195 °C.

`CC(C)(C)OC(=O)CCc1cccc(-c2nc(=O)c3ccc(C(F)(F)F)cc3s2)n1` yielded a melting point of 148 to 149 °C. `COC1(OCC#Cc2ccc(Cl)nc2)C=CC=NC1` (configuration not stated) had a melting point of 100 to 101 °C.

`CCCCCC(C)C(C)c1cc(O)c2c(c1)OC(C)(C)C1=C2CN(CC(=O)NC(=O)Nc2ccccc2)CC1` (configuration not stated): the melting point fell in the range of 159 to 161 °C. Under `CC12CC(c3ccc(C=O)cc3)C3=C4CCC(=O)C=C4CCC3C1CCC2O` (configuration not stated) stands 197 to 200 °C; under `COCCCn1nnnc1-c1cc(-c2cccc(C(F)(F)F)c2)c(O)cc1O`, 144 to 182 °C. As for `CCOc1cc(Cc2cnc(N)nc2N)cc2c1OC(C)(C)C=C2CC(C)C`, the melting point amounted to 188 °C. Under `O=Cc1ccc2cc(C=O)ccc2c1` stands 173 to 174 °C. In turn, `O=C1c2ccccc2C(=O)N1Cc1noc(-c2ncn3c2[C@@H]2CCN2C(=O)c2c-3cccc2C(F)(F)F)n1` registered a melting point of 243 to 245 °C. As to `COc1ccc(C(=O)N2CCN(c3ccc(N)c(CCC(=O)O)c3)CC2)cc1OC`, the melting point was 98 to 101 °C.
